From US10945983B2, “Oleocanthal isolation and cancer treatment” (Board of Supervisors for the University of Louisiana System, priority 2016, dated 2021)
pIC50: −log10 of the molar value. Read-outs that look alike come from different tables or passages of the source.

Assays:
HER2+-ER+BT-474 BC cells = test: BT-474 recurrence after neoadjuvant lapatinib regimen; assay type: in vivo, athymic nude mice; settings: OC 10 mg/kg, ip, 3×/week, additional 54 days after lapatinib 50 mg/kg for 60 days
Method: FIG. 36A is a photograph of representative animals of vehicle control group and two photographs showing circled tumor developed over the additional 54 days period. FIG. 36B is two photographs of representative animals that completed 60 days oral lapatinib 50 mg/kg group and two photographs of developed circled tumors after additional 54 days. FIG. 36C is two photographs of representative animals of 10 mg OC 1p, 3×/week group, and two photographs showing no tumor developed over the additional 54 days regimen.
(§1) The correlation between c-Met/HGF pathway and tumor resistance is documented. […] This was consistent with the OC c-Met inhibitory activity and previously shown growth and recurrence effects.

BT-474 tumor recurrence = test: HER2+/ER+ BT-474 recurrence after primary tumor surgical excision; settings: for recurrence tumor weight inhibition: additional 54 days after excision
Method: Female athymic nude mice used in previous experiment were anesthetized prior to the surgical excision procedure with ip ketamine/xylazine combination (100 mg/kg/15 mg/kg). 15-20 min after administering the anesthetic animal reflexes tested by gently tapping the hind legs with sterile syringe needle and finally their tumors were surgically excised and each wound was closed by one or two stitches. Ketoprofen, 1 mg/kg was used 12 hours before and 12 h after surgery for effective analgesia. Ophthalmic lubricant was used during the surgery to prevent corneal drying. Bupivicaine (0.25%, 1-2 drops), twice daily, was used topically at the excision wound site, local infiltration along surgery site during closure with a maximum dose of 2 mg/kg.

TNBC MDA-MB-231 BC cells = test: TNBC recurrence after neoadjuvant paclitaxel; assay type: in vivo; settings: 10 mg/kg oral daily
Source text: as §1

mTOR = mTOR (Homo sapiens, UniProt P42345); settings: read-out: IC50 mTOR enzymatic activity; cited from earlier work
BT-474 human BC cells = settings: for BT-474 tumor weight inhibition vs vehicle: 3×/week, intraperitoneal, 60 days; for BT-474 tumor growth inhibition: 5×/week
Method: 5×10^6 cells/20 μL BT-474 human BC cells were sc inoculated into second mammary gland fat pad of athymic nude (Foxn1^nu/Foxn^1). […] Top panels show photographs of representative intact animal for each group. Bottom panels show photographs of excised primary tumor at experiment end.
Turning to FIGS. 28A-32, the HER2+ BC represents >15% of total BC cases with aggressive metastatic and highly resistant profile.

[1] = test system: MDA-MB-231/GFP human breast cancer cells; test: Orthotopic TNBC xenograft model in athymic mice; assay type: in vivo, athymic nude mice; settings: intraperitoneal 5 mg/kg, 3× per week; previous experiments of the inventors
Method: MDA-MB-231/GFP human breast cancer cells were cultured and resuspended in serum-free DMEM medium (20 μl). After anesthesia, cell suspensions (1×10^6 cells/20 μl) were inoculated subcutaneously into the second mammary gland fat pad just beneath the nipple of each athymic nude mouse to generate orthotopic breast tumors. […] FIG. 20 is a line chart showing tumor size was evaluated periodically during treatment at indicated days postinoculation. Tumor volume (V) was calculated by V=L/2×W^2, where L was the length and W was the width of tumors. […]
Turning to FIGS. 20-23, in the current disclosure, as a future dietary candidate OC nano-emulsion oral in vivo antitumor efficacy was assessed using the same mouse model using MDA-MB-231/GFP human BC cells. […] The mice were monitored by measuring body weight, and observation of their physical behavior throughout the study. […]
MDA-MB-231/GFP human breast cancer cells were harvested, pelleted by centrifugation at 850×g for 5 minutes, and re-suspended in sterile serum-free DMEM medium (20 μL). […] The mice were monitored by measuring tumor volume, body weight, and clinical observation. Tumor volume (V) was calculated by V=L/2×W^2, where L was the length and W was the width of tumors. […]

SMILES | tumor recurrence after lapatinib regimen (HER2+-ER+BT-474 BC cells) | recurrence tumor weight inhibition (BT-474 tumor recurrence; 10 mg/kg, ip, 3×/week) | recurrence and chemoresistance after neoadjuvant paclitaxel (TNBC MDA-MB-231 BC cells) | pIC50 (mTOR) | BT-474 tumor weight inhibition vs vehicle (BT-474 human BC cells; 5 mg/kg) | BT-474 tumor weight inhibition vs vehicle (BT-474 human BC cells; 10 mg/kg) | tumor growth inhibition [1] | recurrence tumor weight inhibition (BT-474 tumor recurrence; 50 mg/kg, 5×/week oral) | body weight (BT-474 tumor recurrence; lapatinib 50 mg/kg, additional 54 days) | BT-474 tumor growth inhibition (BT-474 human BC cells; 12.5 mg oral dose) | BT-474 tumor growth inhibition (BT-474 human BC cells; 50 mg oral dose)
C/C=C(/C=O)[C@@H](CC=O)CC(=O)OCCc1ccc(O)cc1 [OC, (-)-Oleocanthal] | inhibited the HER2+-ER+BT-474 BC cells recurrence | 86.2% | effectively inhibited in vivo recurrence and reversed chemoresistance | 6.15 | 88.2% | 93.2% | 65% |  |  |  | 
CS(=O)(=O)CCNCc1ccc(-c2ccc3ncnc(Nc4ccc(OCc5cccc(F)c5)c(Cl)c4)c3c2)o1 [lapatinib, reference compound] |  |  |  |  |  |  |  | 81.4% | significant weight decrease | 85.9% | 89.9%
